# Test results: ChEMBL document CHEMBL5365423, “6-Azaspiro[2.5]octanes as small molecule agonists of the human glucagon-like peptide-1 receptor” (Bioorg Med Chem Lett, 2023)
# Experiments:
# [1] = Intrinsic clearance in human hepatocytes measured per million cells; assay type: ADME, cell-based, Hepatocyte; conditions: read-out: CLH
# [2] = target: T1, Glucagon-like peptide 1 receptor (Homo sapiens, UniProt P43220); experiment: Displacement of [125I]-GLP1 from GLP-1 receptor (unknown origin) expressed in CHO cells membrane pre-incubated for 10 mins followed by [125I]-GLP1 addition and measured after 180 mins by microbeta scintillation counting method; assay type: cell membranes
# [3] = Apparent permeability in MDCK cells by LC-MS/MS analysis; assay type: ADME, cell-based, Canis lupus familiaris; conditions: dog
# [4] = target: Voltage-gated inwardly rectifying potassium channel KCNH2 (Homo sapiens, UniProt Q12809); experiment: Inhibition of human ERG dofetilide binding assay; assay type: toxicity
# [5] = target: T2, CYP1A2 (Homo sapiens, UniProt P05177); experiment: Inhibition of CYP1A2 (unknown origin) at 3 uM relative to control; assay type: ADME
# T2 sequence (P05177 whole entry): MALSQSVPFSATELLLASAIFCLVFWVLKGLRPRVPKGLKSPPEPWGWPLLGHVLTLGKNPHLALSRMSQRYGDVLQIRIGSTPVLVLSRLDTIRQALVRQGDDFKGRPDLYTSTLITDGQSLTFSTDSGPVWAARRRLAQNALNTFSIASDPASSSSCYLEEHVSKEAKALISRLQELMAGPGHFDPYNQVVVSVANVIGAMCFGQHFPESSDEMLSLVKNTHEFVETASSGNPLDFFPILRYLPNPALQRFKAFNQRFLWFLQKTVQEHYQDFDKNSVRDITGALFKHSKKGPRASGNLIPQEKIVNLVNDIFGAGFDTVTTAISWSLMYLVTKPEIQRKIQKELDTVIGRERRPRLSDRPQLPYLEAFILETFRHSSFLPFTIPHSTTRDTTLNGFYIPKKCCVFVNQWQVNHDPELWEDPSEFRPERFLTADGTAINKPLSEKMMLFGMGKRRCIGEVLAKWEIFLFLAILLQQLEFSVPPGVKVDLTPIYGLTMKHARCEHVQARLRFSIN
# [6] = target: T3, CYP2C8 (Homo sapiens, UniProt P10632); experiment: Inhibition of CYP2C8 (unknown origin) at 3 uM relative to control; assay type: ADME
# T3 sequence (P10632 whole entry): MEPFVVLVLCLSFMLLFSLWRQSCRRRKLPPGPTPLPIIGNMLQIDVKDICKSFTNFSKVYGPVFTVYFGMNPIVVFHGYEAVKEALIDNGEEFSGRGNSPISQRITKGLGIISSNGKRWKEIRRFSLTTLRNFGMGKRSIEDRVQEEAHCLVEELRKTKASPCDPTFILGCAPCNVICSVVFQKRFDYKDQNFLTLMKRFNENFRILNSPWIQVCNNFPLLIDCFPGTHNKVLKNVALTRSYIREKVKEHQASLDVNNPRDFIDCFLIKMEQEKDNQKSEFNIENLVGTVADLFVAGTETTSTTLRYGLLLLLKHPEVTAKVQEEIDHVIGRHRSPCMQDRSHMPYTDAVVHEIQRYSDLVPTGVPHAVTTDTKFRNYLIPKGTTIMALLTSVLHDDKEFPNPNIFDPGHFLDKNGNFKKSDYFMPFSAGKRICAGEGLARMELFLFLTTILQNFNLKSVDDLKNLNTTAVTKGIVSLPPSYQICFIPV
# [7] = target: CYP2C9 (Homo sapiens, UniProt P11712); experiment: Inhibition of CYP2C9 (unknown origin) at 3 uM relative to control; assay type: ADME
# [8] = target: CYP2D6 (Homo sapiens, UniProt P10635); experiment: Inhibition of CYP2D6 (unknown origin) at 3 uM relative to control; assay type: ADME
# [9] = target: CYP3A4 (Homo sapiens, UniProt P08684); experiment: Inhibition of CYP3A4 (unknown origin) at 3 uM relative to control; assay type: ADME
# [10] = system: PDE3A1; experiment: Inhibition of PDE3A1 (unknown origin); assay type: toxicity, Homo sapiens
# [11] = Drug metabolism in human hepatocytes assessed as oxidation by LC/MS/MS analysis; assay type: ADME, cell-based, Hepatocyte
# [12] = Drug metabolism in human hepatocytes assessed as glucuronidation by LC/MS/MS analysis; assay type: ADME, cell-based, Hepatocyte
# [13] = Lipophilicity, logD of compound; assay type: physicochemical; conditions: octanol/water
# [14] = target: T1, Glucagon-like peptide 1 receptor; experiment: Agonist activity at GLP-1 receptor (unknown origin) expressed in CHO cells at 20 uM in presence of BETP by cAMP assay relative to control; assay type: functional, cell-based; conditions: filed as agonist
# T1 sequence (P43220 whole entry): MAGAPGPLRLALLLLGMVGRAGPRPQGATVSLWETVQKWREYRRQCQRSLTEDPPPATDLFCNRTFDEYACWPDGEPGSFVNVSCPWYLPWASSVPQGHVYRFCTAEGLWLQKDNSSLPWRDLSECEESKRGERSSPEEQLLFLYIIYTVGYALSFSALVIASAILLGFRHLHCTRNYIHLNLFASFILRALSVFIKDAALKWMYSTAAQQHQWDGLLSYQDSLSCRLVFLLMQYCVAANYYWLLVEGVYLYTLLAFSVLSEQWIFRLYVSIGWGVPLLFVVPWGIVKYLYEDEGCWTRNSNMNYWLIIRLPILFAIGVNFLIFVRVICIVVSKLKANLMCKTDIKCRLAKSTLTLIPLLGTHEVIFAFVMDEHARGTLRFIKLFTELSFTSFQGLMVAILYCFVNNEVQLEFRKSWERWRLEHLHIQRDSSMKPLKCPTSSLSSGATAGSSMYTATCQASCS
# Chain of CYP2D6 (P10635 whole entry): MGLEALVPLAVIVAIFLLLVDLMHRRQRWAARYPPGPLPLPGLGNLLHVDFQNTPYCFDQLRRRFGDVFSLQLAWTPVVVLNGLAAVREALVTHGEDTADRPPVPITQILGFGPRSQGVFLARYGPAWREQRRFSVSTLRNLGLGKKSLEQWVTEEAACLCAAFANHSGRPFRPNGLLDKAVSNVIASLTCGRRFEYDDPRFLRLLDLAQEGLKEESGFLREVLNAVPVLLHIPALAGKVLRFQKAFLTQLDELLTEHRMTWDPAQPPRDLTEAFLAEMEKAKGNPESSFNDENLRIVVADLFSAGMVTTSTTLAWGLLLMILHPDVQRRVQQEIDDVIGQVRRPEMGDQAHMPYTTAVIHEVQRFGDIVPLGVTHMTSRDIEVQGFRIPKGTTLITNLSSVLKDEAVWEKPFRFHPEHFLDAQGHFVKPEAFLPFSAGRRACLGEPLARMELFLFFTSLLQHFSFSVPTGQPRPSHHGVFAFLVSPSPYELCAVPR
# Chain of CYP2C9 (P11712 whole entry): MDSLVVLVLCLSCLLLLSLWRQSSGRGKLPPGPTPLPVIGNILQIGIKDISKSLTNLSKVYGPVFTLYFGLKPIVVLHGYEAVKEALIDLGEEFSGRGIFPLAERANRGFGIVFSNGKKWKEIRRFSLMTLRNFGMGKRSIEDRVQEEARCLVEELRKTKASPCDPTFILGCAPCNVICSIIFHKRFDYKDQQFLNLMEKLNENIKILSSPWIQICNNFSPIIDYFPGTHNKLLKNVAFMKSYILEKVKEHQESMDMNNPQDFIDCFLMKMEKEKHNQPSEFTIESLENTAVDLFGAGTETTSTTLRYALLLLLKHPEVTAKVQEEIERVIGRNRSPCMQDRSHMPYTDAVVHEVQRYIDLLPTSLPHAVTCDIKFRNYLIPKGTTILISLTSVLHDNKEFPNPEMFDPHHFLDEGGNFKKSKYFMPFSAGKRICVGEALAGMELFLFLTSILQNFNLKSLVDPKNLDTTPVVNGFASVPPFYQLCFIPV
# Chain of Voltage-gated inwardly rectifying potassium channel KCNH2 (Q12809 whole entry): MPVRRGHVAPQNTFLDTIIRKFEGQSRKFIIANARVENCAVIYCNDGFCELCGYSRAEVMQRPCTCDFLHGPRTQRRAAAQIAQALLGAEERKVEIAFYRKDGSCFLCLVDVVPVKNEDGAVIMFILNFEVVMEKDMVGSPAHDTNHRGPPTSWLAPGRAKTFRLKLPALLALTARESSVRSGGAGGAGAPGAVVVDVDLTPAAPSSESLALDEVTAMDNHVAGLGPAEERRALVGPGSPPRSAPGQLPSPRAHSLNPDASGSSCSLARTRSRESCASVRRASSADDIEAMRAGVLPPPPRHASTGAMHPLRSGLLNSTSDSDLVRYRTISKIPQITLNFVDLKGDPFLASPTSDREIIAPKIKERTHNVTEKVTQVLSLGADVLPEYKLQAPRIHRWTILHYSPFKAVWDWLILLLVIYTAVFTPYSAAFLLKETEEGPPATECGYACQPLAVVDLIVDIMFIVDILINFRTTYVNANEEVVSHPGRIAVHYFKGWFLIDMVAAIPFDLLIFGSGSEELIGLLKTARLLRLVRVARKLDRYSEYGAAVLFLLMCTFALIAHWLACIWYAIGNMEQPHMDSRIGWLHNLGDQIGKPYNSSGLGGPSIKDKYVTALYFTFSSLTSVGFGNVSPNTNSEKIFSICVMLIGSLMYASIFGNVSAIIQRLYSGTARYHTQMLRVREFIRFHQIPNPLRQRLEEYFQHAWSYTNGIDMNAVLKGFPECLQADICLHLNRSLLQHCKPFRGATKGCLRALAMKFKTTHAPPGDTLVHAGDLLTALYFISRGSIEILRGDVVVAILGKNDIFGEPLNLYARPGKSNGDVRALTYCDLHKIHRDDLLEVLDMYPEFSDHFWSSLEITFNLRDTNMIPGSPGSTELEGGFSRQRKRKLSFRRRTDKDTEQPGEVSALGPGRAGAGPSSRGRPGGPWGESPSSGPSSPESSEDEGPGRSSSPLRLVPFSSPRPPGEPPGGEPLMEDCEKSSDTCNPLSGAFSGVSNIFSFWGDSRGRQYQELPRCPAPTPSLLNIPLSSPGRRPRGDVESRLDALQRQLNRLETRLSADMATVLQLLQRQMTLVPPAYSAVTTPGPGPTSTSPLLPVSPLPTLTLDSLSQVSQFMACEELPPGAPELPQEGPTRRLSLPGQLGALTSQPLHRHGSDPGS
# Chain of CYP3A4 (P08684 whole entry): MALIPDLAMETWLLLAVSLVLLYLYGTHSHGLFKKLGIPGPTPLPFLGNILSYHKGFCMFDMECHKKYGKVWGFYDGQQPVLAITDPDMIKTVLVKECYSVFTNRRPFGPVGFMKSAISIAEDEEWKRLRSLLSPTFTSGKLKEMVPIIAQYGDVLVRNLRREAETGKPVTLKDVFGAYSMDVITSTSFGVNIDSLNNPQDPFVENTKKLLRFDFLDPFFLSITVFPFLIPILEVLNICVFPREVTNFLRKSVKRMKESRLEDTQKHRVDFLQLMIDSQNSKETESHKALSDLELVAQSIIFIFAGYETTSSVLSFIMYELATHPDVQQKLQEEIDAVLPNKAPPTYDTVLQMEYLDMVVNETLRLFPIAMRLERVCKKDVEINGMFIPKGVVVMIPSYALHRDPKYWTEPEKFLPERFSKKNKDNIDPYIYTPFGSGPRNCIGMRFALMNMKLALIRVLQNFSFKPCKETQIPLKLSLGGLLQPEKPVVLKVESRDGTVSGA
hepatocyte CLint [1],EC50 [2],Papp [3],SMILES,other results
20 µL/min/1e6 cells,14 nM,5 ×10⁻⁶ cm/s,N#Cc1ccc(COc2nc(N3CCC4(CC3)C[C@@H]4c3nc4ccc(C(=O)O)cc4n3C[C@@H]3CCO3)ccc2F)c(F)c1,
30 µL/min/1e6 cells,32 nM,2 ×10⁻⁶ cm/s,O=C(O)c1ccc2nc([C@H]3CC34CCN(c3nccc(OCc5ccc(Cl)cc5F)n3)CC4)n(C[C@@H]3CCO3)c2c1,
27 µL/min/1e6 cells,19 nM,3 ×10⁻⁶ cm/s,O=C(O)c1ccc2nc([C@H]3CC34CCN(c3ncc(F)c(OCc5ccc(Cl)cc5F)n3)CC4)n(C[C@@H]3CCO3)c2c1,
37 µL/min/1e6 cells,4.1 nM,5 ×10⁻⁶ cm/s,N#Cc1ccc(COc2nc(N3CCC4(CC3)C[C@@H]4c3nc4ccc(C(=O)O)cc4n3C[C@@H]3CCO3)c(F)cc2F)c(F)c1,
23 µL/min/1e6 cells,15 nM,7 ×10⁻⁶ cm/s,N#Cc1ccc(COc2cccc(N3CCC4(CC3)C[C@@H]4c3nc4ccc(C(=O)O)cc4n3C[C@@H]3CCO3)n2)c(F)c1,
32 µL/min/1e6 cells,5.8 nM,6 ×10⁻⁶ cm/s,N#Cc1ccc(COc2ccc(F)c(N3CCC4(CC3)C[C@@H]4c3nc4ccc(C(=O)O)cc4n3C[C@@H]3CCO3)n2)c(F)c1,Ki [4]: > 40000 nM; inhibition at 3 µM [5]: < 20%; inhibition at 3 µM [6]: 60%; inhibition at 3 µM [7]: < 20%; inhibition at 3 µM [8]: < 20%; inhibition at 3 µM [9]: < 20%; IC50 [10]: 409 nM; Drug metabolism [11]: Metabolite_Detected; Drug metabolism [12]: Metabolite_Detected; logD [13]: 2.3
7 µL/min/1e6 cells,,10 ×10⁻⁶ cm/s,N#Cc1ccc(COc2cccc(C3CCN(Cc4nc5ccc(C(=O)O)cc5n4C[C@@H]4CCO4)CC3)n2)c(F)c1 [DANUGLIPRON],
14 µL/min/1e6 cells,15 nM,7 ×10⁻⁶ cm/s,O=C(O)c1ccc2nc([C@H]3CC34CCN(c3nc(OCc5ccc(Cl)cc5F)ncc3F)CC4)n(C[C@@H]3CCO3)c2n1,
21 µL/min/1e6 cells,,5 ×10⁻⁶ cm/s,O=C(O)c1ccc2nc([C@H]3CC34CCN(c3nc(OCc5ccc(Cl)cc5F)ncc3F)CC4)n(C[C@H]3CCO3)c2c1,
,,,Cn1c(CC2CCN(c3nc(OCc4ccc(Cl)cc4F)ncc3F)CC2)nc2ncccc21,Activity [14]: 75%
,,,Cn1c(CC2CCN(c3nc(OCc4ccc(Cl)cc4F)ncc3F)CC2)nc2ccccc21,Activity [14]: 40%
,,,Cn1c(CN2CCC(c3nc(OCc4ccc(Cl)cc4F)ncc3F)CC2)nc2ccccc21,Activity [14]: 70%
